According to patent EP1816136A1, “GPR7-SELECTIVE LIGAND AND USE THEREOF” (BANYU PHARMACEUTICAL CO., LTD., priority 2004, dated 2006):
Non-standard residues stand in square brackets, D forms with d. Residues, ends and D or L forms follow the SMILES beside them. Ava = NCCCCC(=O)O

Assays:
GPR7 [1] = target: T1, GPR7 (Homo sapiens, UniProt P48145); assay: Binding inhibition test with [125I]-[Phe2]-hNPW(1-23), GPR7 membrane preparation; conditions: Table 1, membrane preparation of HEK293/CRE-BLA cells expressing GPR7, 1 hour at room temperature
T1 construct: expressed in transfected cells; host or cells: HEK293/CRE-BLA cells (AURORA), expression vector pIRES-hygro (Clontech)
T1 sequence (P48145 1-328): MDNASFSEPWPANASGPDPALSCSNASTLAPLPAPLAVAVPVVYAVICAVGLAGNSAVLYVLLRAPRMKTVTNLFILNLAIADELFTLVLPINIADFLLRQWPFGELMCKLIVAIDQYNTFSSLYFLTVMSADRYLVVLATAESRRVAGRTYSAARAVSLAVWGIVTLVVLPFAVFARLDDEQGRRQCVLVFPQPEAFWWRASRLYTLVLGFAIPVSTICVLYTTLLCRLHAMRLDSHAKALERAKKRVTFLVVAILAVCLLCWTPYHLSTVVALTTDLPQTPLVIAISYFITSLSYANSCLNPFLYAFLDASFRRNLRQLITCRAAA
Procedure: (§1) One nmol of [Phe2]-hNPW(1-23) (prepared in Synthesis Example 19) was dissolved in 5 µL of anhydrous DMSO, and the solution was mixed with 0.1M nickel chloride. Then, the mixture was mixed with 10 µL of a 0.00 1 % aqueous solution of hydrogen peroxide, 10 µL of an enzyme solution (lactoperoxidase (Sigma) adjusted to 10 µg/mL with a 0.1M HEPES buffer solution), and 37 Mbq/10 µL of Iodine-125 (Amersham), whereafter the resulting mixture was reacted for 60 minutes at room temperature. The reaction was terminated with the addition of 10 µL of 1% sodium azide, and then a radiolabeled peptide fraction was collected by a PD-10 gel filtration column (Amersham) to obtain [^125I]-[Phe2]-hNPW(1-23).
(§2) A cDNA sequence coding for human GPR7 or GPR8 [see Genomics, vol. 28, p. 84 (1995)] was amplified by the PCR method, and cloned using the expression vector pIRES-hygro (Clontech). The resulting expression vector was transfected into HEK293/CRE-BLA cells (AURORA) using the cationic lipid method [see Proceedings of the National Academy of Sciences of the United States of America, vol. 84, p. 7413 (1987)] to obtain GPR7 or GPR8 expression cells.
(§3) A membrane preparation prepared from the cells expressing GPR7 or GPR8 was incubated for 1 hour at room temperature in an assay buffer solution (25 mM Tris buffer solution, 150 mM NaCl, pH 7.4) together with a test compound and 28,000 cpm of [^125I]-[Phe2]-hNPW(1-23). Then, the system was filtered through the glass filter GF/C. After washing with 25 mM Tris buffer solution (pH 7.4), radioactivity on the glass filter was measured. Nonspecific binding was measured in the presence of 1 µM hNPW (prepared in Synthesis Example 1), and the 50% inhibition concentration (IC50 value) of the test compound against [Phe2]-hNPW(1-23) specific binding was calculated [see Molecular Pharmacology, vol. 55, 1101 (1999)].

GPR8 [2] = target: T2, GPR8 (Homo sapiens, UniProt P48146); assay: Binding inhibition test with [125I]-[Phe2]-hNPW(1-23), GPR8 membrane preparation; conditions: Table 1, membrane preparation of HEK293/CRE-BLA cells expressing GPR8, 1 hour at room temperature
T2 construct: expressed in transfected cells; host or cells: HEK293/CRE-BLA cells (AURORA), expression vector pIRES-hygro (Clontech)
Procedure: as §1, §2, §3

GPR8 [3] = target: T2, GPR8; assay: Measurement of activation capacity on GPR8 (CRE-BLA beta-lactamase reporter assay); assay type: cell-based; conditions: Table 1; HEK293/CRE-BLA cells expressing GPR8; forskolin 1 µM; 3 hours at 37°C; read-out: GPR8 (nM) EC 50
Source text: as §2
(§4) In accordance with the method of Zlakarmik (see Science, 1998, vol. 279, p. 84), the activity of various synthetic peptides on GPR7 or GPR8 was measured. HEK293/CRE-BLA cells which expressed GPR7 or GPR8 (prepared in (2) of Test Example 1) were washed twice with PBS(-) buffer solution (GIBCO-BRL), and then Cell-dissociation buffer (GIBCO-BRL) was added. The system was kept at 37°C for 3 minutes in a CO2 incubator, and a culture flask was tapped to liberate the cells from the flask. After the cells were harvested by centrifugation, the cells were suspended in an Opti-MEM culture medium (GIBCO-BRL) containing 0.1 % BSA (Sigma) to count the cells and prepare a cell suspension containing 8×10^5 cells/mL. To 2 µL of a DMSO solution containing each test compound with a concentration of 50 times an end concentration, 50 µL of the 0.1% BSA-containing Opti-MEM medium incorporating forskolin (Sigma) so as to have an end concentration of 1 µM was added to form a reaction solution. To this reaction solution, 50 µL of the above cell suspension was added to initiate the reaction, and the system was incubated for 3 hours at 37°C in a CO2 incubator.
(§5) Then, using a BLA assay kit (AURORA), a coloring matter-introduced buffer solution incorporating 12 µL of Solution A [1 mM CCF2-AM/anhydrous DMSO solution], 120 µL of Solution B [100 mg/mL Pluronic 127, 0.1% acetic acid/DMSO solution], and 2 mL of Solution C [24% (w/w) PEG-400, 18% TR40/H2O] was prepared. This coloring matter-introduced buffer solution (20 µL) was added to the above-mentioned cell reaction mixture to introduce a β-lactamase substrate (CCF2-AM) into the cells. After the system was allowed to stand for 1 hour at room temperature, the fluorescence intensities of the sample at an excitation wavelength of 409 nm, at a fluorescence wavelength of 460 nm (a β-lactamase hydrolyzate of CCF), and at 530 nm (CCF) were measured. With β-lactamase activity (fluorescence intensity at 460 nm/fluorescence intensity at 530 nm) as an indicator, the activity of each of various peptides on GPR7 or GPR8 was measured, and the 50% effective concentration (EC50) of the test compound was calculated.

GPR7 [4] = target: T1, GPR7; assay: Measurement of activation capacity on GPR7 (CRE-BLA beta-lactamase reporter assay); assay type: cell-based; conditions: Table 1; HEK293/CRE-BLA cells expressing GPR7; forskolin 1 µM; 3 hours at 37°C
Source text: as §2, §4, §5

T2 sequence (P48146 whole entry): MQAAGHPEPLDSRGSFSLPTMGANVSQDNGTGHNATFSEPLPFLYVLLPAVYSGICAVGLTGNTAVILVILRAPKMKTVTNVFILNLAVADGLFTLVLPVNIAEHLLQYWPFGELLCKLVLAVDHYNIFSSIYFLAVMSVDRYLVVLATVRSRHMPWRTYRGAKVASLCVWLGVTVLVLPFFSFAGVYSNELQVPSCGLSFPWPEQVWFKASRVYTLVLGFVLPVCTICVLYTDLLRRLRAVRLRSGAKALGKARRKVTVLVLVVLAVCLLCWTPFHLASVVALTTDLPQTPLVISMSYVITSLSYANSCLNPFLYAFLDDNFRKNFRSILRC

SMILES | IC50 (GPR7 [1]) | IC50 (GPR8 [2]) | EC50 (GPR8 [3]) | EC50 (GPR7 [4])
CC(C)C[C@H](NC(=O)CNC(=O)[C@H](CO)NC(=O)[C@H](CC(C)C)NC(=O)[C@H](CC(C)C)NC(=O)CNC(=O)[C@H](C)NC(=O)[C@H](C)NC(=O)[C@H](CCCNC(=N)N)NC(=O)CNC(=O)CCCCNC(=O)[C@H](CCCCN)NC(=O)[C@H](Cc1ccc(O)cc1)NC(=O)[C@@H](N)Cc1c[nH]c2ccccc12)C(N)=O [compound 5] (H-WYK[Ava]GRAAGLLSGL-NH2) | 0.55 nM | 310 nM | 280 nM | 1.7 nM
CC(C)C[C@H](NC(=O)CNC(=O)[C@H](CO)NC(=O)[C@H](CC(C)C)NC(=O)[C@H](CC(C)C)NC(=O)CNC(=O)[C@H](C)NC(=O)[C@H](C)NC(=O)[C@H](CCCNC(=N)N)NC(=O)CNC(=O)CCCCNC(=O)CCCCNC(=O)[C@H](CCCCN)NC(=O)[C@H](Cc1ccc(O)cc1)NC(=O)[C@@H](N)Cc1c[nH]c2ccccc12)C(N)=O [compound 6] (H-WYK[Ava][Ava]GRAAGLLSGL-NH2) | 0.47 nM | 300 nM | 94 nM | 2.2 nM
CC(C)C[C@H](NC(=O)CNC(=O)[C@H](CO)NC(=O)[C@H](CC(C)C)NC(=O)[C@H](CC(C)C)NC(=O)CNC(=O)[C@H](C)NC(=O)[C@H](C)NC(=O)[C@H](CCCNC(=N)N)NC(=O)CNC(=O)CCCCNC(=O)CCCCNC(=O)CCCCNC(=O)[C@H](CCCCN)NC(=O)[C@H](Cc1ccc(O)cc1)NC(=O)[C@@H](N)Cc1c[nH]c2ccccc12)C(N)=O [compound 7] (H-WYK[Ava][Ava][Ava]GRAAGLLSGL-NH2) | 0.09 nM | 260 nM | 77 nM | 0.48 nM
CC(C)C[C@H](NC(=O)CNC(=O)[C@H](CO)NC(=O)[C@H](CC(C)C)NC(=O)[C@H](CC(C)C)NC(=O)CNC(=O)[C@H](C)NC(=O)[C@H](C)NC(=O)[C@H](CCCNC(=N)N)NC(=O)CNC(=O)CCCCNC(=O)CCCCNC(=O)CCCCNC(=O)CCCCNC(=O)[C@H](CCCCN)NC(=O)[C@H](Cc1ccc(O)cc1)NC(=O)[C@@H](N)Cc1c[nH]c2ccccc12)C(N)=O [compound 8] (H-WYK[Ava][Ava][Ava][Ava]GRAAGLLSGL-NH2) | 1.1 nM | 360 nM | 51 nM | 1.2 nM
